According to patent US10000500B2 (PROMEGA CORPORATION, priority 2016, dated 2018):

Molecular target: NANOLUC® Luciferase (Oplophorus gracilirostris, UniProt Q9GV45, A31E/A60N/A81I/F95D/I117V/K70R/L54V/L99Q/M102K/N193R/P142E/Q151K/Q38R/Q45L/V71I/Y165I)
Assay: Km and Vmax substrate titration with NanoLuc luciferase (Example 8)
Format: biochemical
Details: NanoLuc 4 ng/ml; Renilla Glo buffer; Michaelis-Menten fit
Method: Each compound to be screened was diluted to a concentration of 100 uM in Renilla Glo Luciferase Assay buffer (Promega Corporation) and then further diluted to 2×serial dilution in Renilla Glo Luciferase Assay Buffer. NANOLUC® luciferase and Renilla luciferase were diluted to a concentration of 4 ng/ml in OptiMEM+0.1% FBS. 50 ul of each compound dilution was then mixed with 50 ul of each enzyme dilution and incubated for 1 minute at room temperature. Light output for each compound was measured on a GLOMAX®-Multi+ luminometer. Km and Vmax were calculated for each enzyme/substrate combination using a GraphPad Prism Michaelis-Menten non-linear fit (FIGS. 1A-ID).

NANOLUC® Luciferase, sequence (Q9GV45 28-196 with tags or gaps with the stated changes limits assumed): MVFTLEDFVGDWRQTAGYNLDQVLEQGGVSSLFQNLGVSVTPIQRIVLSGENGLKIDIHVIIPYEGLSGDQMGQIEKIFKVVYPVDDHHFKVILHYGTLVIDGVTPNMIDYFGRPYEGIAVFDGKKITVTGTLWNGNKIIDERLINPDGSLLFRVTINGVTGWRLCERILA

O=c1c(Cc2ccco2)nc2c(Cc3ccccc3)[nH]c(-c3ccccc3)cn1-2 [Furimazine, 8-benzyl-2-(furan-2-ylmethyl)-6-phenylimidazo[1,2-a]pyrazin-3(7H)-one]
Km: 9.37 µM
